Data from patent US8999956B2, “N-[(het)arylalkyl)] pyrazole(thio)carboxamides and their heterosubstituted analogues” (Bayer Intellectual Property GmbH, priority 2010, dated 2015).
Like-named read-outs stand apart in the source and are kept apart here.

Columns and labels:
Alternaria solani = experiment: In vivo preventive test on Alternaria solani (tomato); conditions: 500 ppm of active ingredient, evaluated 7 days after inoculation
In short: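 Preventive set-up: Alternaria solani spores, as aqueous suspension, applied to young plants one day after spraying. Spray contained active compound formulated with N,N-dimethylformamide and emulsifier, water-diluted to the desired application rate.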

Botrytis cinerea = experiment: In vivo preventive test on Botrytis cinerea (beans)
Method: Solvent: 24.5 parts by weight of acetone • 24.5 parts by weight of N,N-dimethylacetamide
Emulsifier: 1 part by weight of alkylaryl polyglycol ether
To produce a suitable preparation of active compound, 1 part by weight of active compound is mixed with the stated amounts of solvent and emulsifier, and the concentrate is diluted with water to the desired concentration.
To test for preventive activity, young plants are sprayed with the preparation of active compound. After the spray coating has dried on, 2 small pieces of agar covered with growth of Botrytis cinerea are placed on each leaf. The inoculated plants are placed in a darkened chamber at 20° C. and a relative atmospheric humidity of 100%.
2 days after the inoculation, the size of the lesions on the leaves is evaluated. 0% means an efficacy which corresponds to that of the untreated control, while an efficacy of 100% means that no disease is observed.

[1] = system: aflatoxines produced by Aspergillus parasiticus; experiment: microbe, parasite or virus in culture; assay type: cell-based
Aspergillus parasiticus = experiment: microbe, parasite or virus in culture; assay type: cell-based
Pyrenophora teres = experiment: In vivo preventive test on Pyrenophora teres (barley); conditions: 500 ppm of active ingredient, evaluated 7-9 days after inoculation
In short: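 Preventive test: young barley plants received a water-diluted spray of compound formulated with DMF solvent plus alkylaryl polyglycol ether emulsifier, at the stated rate. Inoculation with an aqueous spore suspension of Pyrenophora teres followed one day after spraying.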

Sphaerotheca fuliginea = experiment: In vivo preventive test on Sphaerotheca fuliginea (cucumber); conditions: 500 ppm of active ingredient, evaluated 7 days after inoculation
Method: Solvent: 49 parts by weight of N,N-dimethylformamide Emulsifier: 1 part by weight of Alkylarylpolyglycolether To produce a suitable preparation of active compound, 1 part by weight of active compound is mixed with the stated amounts of solvent and emulsifier, and the concentrate is diluted with water to the desired concentration. To test for preventive activity, young plants are sprayed with the preparation of active compound at the stated rate of application. One day after this treatment, the plants are inoculated with an aqueous spore suspension of Sphaerotheca fuliginea. Then the plants are placed in a greenhouse at approximately 23° C. and a relative atmospheric humidity of approximately 70%.

Uromyces appendiculatus = experiment: In vivo preventive test on Uromyces appendiculatus (beans); conditions: 100 ppm of active ingredient, evaluated 10 days after inoculation
Method: (§1) Solvent: 24.5 parts by weight of acetone • 24.5 parts by weight of N,N-dimethylacetamide Emulsifier: 1 part by weight of alkylaryl polyglycol ether To produce a suitable preparation of active compound, 1 part by weight of active compound is mixed with the stated amounts of solvent and emulsifier, and the concentrate is diluted with water to the desired concentration. To test for preventive activity, young plants are sprayed with the preparation of active compound at the stated rate of application.

[2] = log P by HPLC on reversed-phase column (EEC Directive 79/831 Annex V.A8); assay type: physicochemical
Method: In table 1, the log P values were determined in accordance with EEC Directive 79/831 Annex V.A8 by HPLC (High Performance Liquid Chromatography) on a reversed-phase column (C18), using the method described below: Temperature: 40° C.; […]

Leptosphaeria nodorum = experiment: In vivo preventive test on Leptosphaeria nodorum (wheat); conditions: 500 ppm of active ingredient, evaluated 7-9 days after inoculation
Method: as §1, with “Solvent: 49 parts by” for “Solvent: 24.5 parts by weight of acetone • 24.5 parts by”, “sprayed with a preparation of” for “sprayed with the preparation of”, “of application. One day after this treatment, the plants are inoculated with an aqueous spore suspension of Leptosphaeria nodorum.” for “of application.”

Venturia inaequalis = experiment: In vivo preventive test on Venturia inaequalis (apple scab); conditions: 100 ppm of active ingredient, evaluated 10 days after inoculation
Method: as §1

Puccinia triticina = experiment: In vivo preventive test on Puccinia triticina (wheat)
Septoria tritici = experiment: In vivo preventive test on Septoria tritici (wheat); conditions: 500 ppm of active ingredient, evaluated 21 days after inoculation
Method: Solvent: 49 parts by weight of N,N-dimethylacetamide Emulsifier: 1 part by weight of alkylaryl polyglycol ether To produce a suitable preparation of active compound, 1 part by weight of active compound or active compound combination is mixed with the stated amounts of solvent and emulsifier, and the concentrate is diluted with water to the desired concentration. To test for preventive activity, young plants are sprayed with the preparation of active compound or active compound combination at the stated rate of application. After the spray coating has been dried, the plants are sprayed with a spore suspension of Septoria tritici.

[3] = Table L, 500 ppm of active ingredient, lesion size 2 days after inoculation
[4] = Table K, 500 ppm of active ingredient, evaluated 8 days after inoculation
[5] = 500 ppm of active ingredient, lesion size 2 days after inoculation
[6] = Table L2, dose 500 ppm, comparison with des-fluoro analogues
[7] = 500 ppm of active ingredient, evaluated 8 days after inoculation
[8] = Puccinia triticina, 192 h, Table K5, dose 500 ppm, comparison with des-fluoro analogues, read-out: Efficacy
[9] = Table L5, dose 500 ppm, comparison with des-fluoro analogues

| Compound | Efficacy (Alternaria solani) | Efficacy (Botrytis cinerea; [3]) | Efficacy (Pyrenophora teres) | Efficacy (Sphaerotheca fuliginea) | logP [2] | further results |
| --- | --- | --- | --- | --- | --- | --- |
| CCC(C)C(C)N(C(=O)c1c(C(F)F)nn(C)c1F)C1CC1 (mixture of isomers) [Example 302] | 95% | 93% | 100% | 98% |  | % Inhibition of Aflatoxin at 50 μM [1]: 100%; % Inhibition of fungal growth at 50 μM (Aspergillus parasiticus): 100% |
| CC(C)CC(C)C1CCCC1NC(=O)c1c(C(F)F)nn(C)c1Cl (single isomer, unassigned) [Example 313] | 80% |  | 100% |  | 4.46 isomer B | % Inhibition of Aflatoxin at 50 μM ([1]; 50 µM): 99%; % Inhibition of fungal growth at 50 μM (Aspergillus parasiticus; 50 µM): 82%; Efficacy (Uromyces appendiculatus): 88% |
| CC(C)CC(C)C1CCCC1NC(=O)c1c(C(F)F)nn(C)c1Cl (single isomer, unassigned) [Example 314] | 95% |  | 100% | 90% | 4.47 isomer C | Efficacy (Leptosphaeria nodorum): 80%; Efficacy (Uromyces appendiculatus): 85%; Efficacy (Venturia inaequalis): 98% |
| CC(CC(C)(C)C)C1CCCCC1NC(=O)c1c(C(F)F)nn(C)c1F (single isomer, unassigned) [Example 361] | 95% |  | 95% | 91% | 4.89 isomer B | Efficacy (Puccinia triticina; [4]): 90%; Efficacy (Septoria tritici): 100%; % Inhibition of Aflatoxin at 50 μM [1]: 100%; % Inhibition of fungal growth at 50 μM (Aspergillus parasiticus; 50 µM): 84%; Efficacy (Venturia inaequalis): 88% |
| Cn1cc(C(=O)N(C2CC2)C2CCCCC2Cc2ccccc2)c(C(F)F)n1 (stereo not drawn) [16 from WO-2010/094666, N-(2-benzylcyclohexyl)-N-cyclopropyl-3-(difluoromethyl)-1-methyl-1H-pyrazole-4-carboxamide, reference compound] |  |  |  |  |  | Efficacy (Puccinia triticina; 100 ppm of active ingredient, evaluated 8 days after inoculation, listed as example 16 disclosed in patent application WO-2010/094666): no protection; pest or weed control at 100 ppm (Puccinia triticina; Puccinia triticina, 192 h, 100 ppm of active ingredient, evaluated 8 days after inoculation, read-out: Efficacy): 0%; pest or weed control at 500 ppm (Puccinia triticina; Puccinia triticina, 192 h, 500 ppm of active ingredient, evaluated 8 days after inoculation, read-out: Efficacy): < 60%; Efficacy (Botrytis cinerea; [5]): 29%; Efficacy (Botrytis cinerea; 500 ppm of active ingredient, lesion size 2 days after inoculation, listed as example 16 disclosed in patent application WO-2010/094666): less than 30% |
| CC(N(C(=O)c1c(C(F)F)nn(C)c1Cl)C1CC1)C(C)(C)Cc1ccccc1 (stereo not drawn) [Example 10] | 90% | 85% | 95% |  | 4.27 |  |
| Cn1nc(C(F)F)c(C(=S)N(C[Si](C)(C)Cc2ccccc2)C2CC2)c1F [Example 289] | 95% | 100% | 100% | 93% | 4.67 | Efficacy (Leptosphaeria nodorum): 95% |
| Cn1nc(C(F)F)c(C(=O)N(C[Si](C)(C)Cc2cccc(Cl)c2)C2CC2)c1F [Example 291] | 100% | 100% | 100% | 73% | 4.44 | Efficacy (Leptosphaeria nodorum): 100%; % Inhibition of Aflatoxin at 50 μM [1]: 100%; % Inhibition of fungal growth at 50 μM (Aspergillus parasiticus): 100% |
| CCCCC1CCCC1NC(=O)c1c(C(F)F)nn(C)c1Cl (stereo not drawn) [Example 307] | 100% |  | 100% | 83% | 3.83 | Efficacy (Puccinia triticina; [4]): 80%; % Inhibition of Aflatoxin at 50 μM [1]: 100%; % Inhibition of fungal growth at 50 μM (Aspergillus parasiticus): 92%; Efficacy (Uromyces appendiculatus): 100%; Efficacy (Venturia inaequalis): 100% |
| CC(C)CCC1CCCC1NC(=O)c1c(C(F)F)nn(C)c1F (stereo not drawn) [Example 310] | 100% |  | 100% | 100% | 3.98 | % Inhibition of Aflatoxin at 50 μM [1]: 100%; % Inhibition of fungal growth at 50 μM (Aspergillus parasiticus): 96%; Efficacy (Uromyces appendiculatus): 100%; Efficacy (Venturia inaequalis): 100% |
| Cn1nc(C(F)F)c(C(=O)NC2CCCC2CCC(C)(C)C)c1Cl (stereo not drawn) [Example 320] | 100% |  | 95% | 100% | 4.49 | Efficacy (Puccinia triticina; [4]): 70%; % Inhibition of Aflatoxin at 50 μM [1]: 99%; % Inhibition of fungal growth at 50 μM (Aspergillus parasiticus): 82%; Efficacy (Uromyces appendiculatus): 99%; Efficacy (Venturia inaequalis): 100% |
| CCC1(CNC(=O)c2c(C(F)F)nn(C)c2F)CCCCC1 [Example 366] | 90% | 84% |  |  | 3.55 |  |
| CC(CC1CCCCC1)N(C(=O)c1c(C(F)F)nn(C)c1F)C1CC1 (stereo not drawn) [Example 370] | 100% | 100% | 100% | 100% | 4.36 | Efficacy (Puccinia triticina; [4]): 90%; Efficacy (Leptosphaeria nodorum): 90% |
| Cn1nc(C(F)F)c(C(=O)N(C2CC2)C2CCCCC2C2CCCCC2)c1F (stereo not drawn) [Example 372] | 95% | 91% | 100% | 100% | 5.28 | Efficacy (Puccinia triticina; [4]): 100%; Efficacy (Leptosphaeria nodorum): 94% |
| Cn1nc(C(F)F)c(C(=O)N(C2CC2)C2CCCCC2C2=CCCCC2)c1F (stereo not drawn) [Example 376] |  |  |  |  | 4.88 | Efficacy (Uromyces appendiculatus): 94% |
| Cn1nc(C(F)F)c(C(=O)NC2(C3CCCCC3)CC2)c1F [Example 381] | 100% | 88% | 100% | 95% | 3.11 |  |
| Cn1cc(C(=O)N(CC2CCCCC2c2ccccc2)C2CC2)c(C(F)F)n1 (stereo not drawn) [compound CMP1, N-cyclopropyl-3-(difluoromethyl)-1-methyl-N-[(2-phenylcyclohexyl)methyl]-1H-pyrazole-4-carboxamide, reference compound] |  |  |  |  |  | Efficacy (Botrytis cinerea; [6]): 0% |
| Cc1nn(C)c(F)c1C(=O)N(C1CC1)C1CCCC(c2ccccc2)C1 (stereo not drawn) [compound CMP2, N-cyclopropyl-5-fluoro-1,3-dimethyl-N-(3-phenylcyclohexyl)-1H-pyrazole-4-carboxamide, reference compound] |  |  |  |  |  | Efficacy (Puccinia triticina; [7]): no protection; pest or weed control at 500 ppm (Puccinia triticina; [8]): 0%; Efficacy (Botrytis cinerea; [9]): 5% |
| Cn1cc(C(=O)N(C2CC2)C2CCCC(c3ccccc3)C2)c(C(F)F)n1 (stereo not drawn) [compound CMP3, N-cyclopropyl-3-(difluoromethyl)-1-methyl-N-(3-phenylcyclohexyl)-1H-pyrazole-4-carboxamide, reference compound] |  |  |  |  |  | Efficacy (Puccinia triticina; [7]): no protection; pest or weed control at 500 ppm (Puccinia triticina; [8]): 0%; Efficacy (Botrytis cinerea; [9]): 0% |
| Cc1nn(C)c(F)c1C(=O)N(CC1CCCCC1c1ccccc1)C1CC1 (stereo not drawn) [compound CMP9, N-cyclopropyl-5-fluoro-1,3-dimethyl-N-[(2-phenylcyclohexyl)methyl]-1H-pyrazole-4-carboxamide, reference compound] |  |  |  |  |  | Efficacy (Botrytis cinerea; [6]): 13% |
| Cc1nn(C)c(F)c1C(=O)N(C1CC1)C1CCCCC1Oc1ccccc1 (stereo not drawn) [compound CMP10, N-cyclopropyl-5-fluoro-1,3-dimethyl-N-(2-phenoxycyclohexyl)-1H-pyrazole-4-carboxamide, reference compound] |  |  |  |  |  | Efficacy (Botrytis cinerea; [5]): less than 30%; Efficacy (Botrytis cinerea; Table L4, dose 500 ppm, comparison with des-fluoro analogue): 29% |
